Assays:
h-TGR5 = biological target: T1, h-TGR5 (Homo sapiens, UniProt Q8TDU6); experiment: TGR5 cAMP Assay using Cisbio cAMP Dynamic 2 htrf assay kit; format: cell-based; conditions: hTGR5CRE-luc HEK 293 cells
T1 sequence (Q8TDU6 1-330): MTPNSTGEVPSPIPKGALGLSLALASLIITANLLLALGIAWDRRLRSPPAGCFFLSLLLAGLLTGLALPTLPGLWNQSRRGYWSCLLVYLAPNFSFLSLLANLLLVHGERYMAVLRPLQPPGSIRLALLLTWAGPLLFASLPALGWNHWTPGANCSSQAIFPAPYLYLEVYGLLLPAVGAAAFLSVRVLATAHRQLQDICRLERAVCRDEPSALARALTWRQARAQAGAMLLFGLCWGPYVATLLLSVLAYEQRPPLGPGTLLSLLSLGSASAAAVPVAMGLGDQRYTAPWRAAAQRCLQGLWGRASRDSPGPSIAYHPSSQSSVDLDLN

human TGR5 (h-TGR5) = biological target: T2, human TGR5 (h-TGR5) (Homo sapiens, UniProt Q8TDU6); experiment: TGR5/CRE-Luciferase Assay; format: cell-based; conditions: HEK 293 hTGR5/CRE-Luc cells, 6 hours incubation, read-out: CRE-Luc Agonist (EC50)
T2 sequence (Q8TDU6 1-330): T1 sequence (Q8TDU6 1-330)
In short: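 HEK 293 CRE-Luciferase cells stably expressing the receptor, plated in DMEM 18-20 h before assay, then exposed to serially diluted compounds (DMEM with 5% DMSO) for 6 h. Luciferase read-out after lysis; EC50 from dose-response.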

| SMILES | EC50 (h-TGR5) [nM] | EC50 (human TGR5 (h-TGR5)) [nM] |
| --- | --- | --- |
| CC[N+](CC)(CC)CCCNS(=O)(=O)c1cc(F)c(CSc2ncc(C(C)(C)c3ccc(Cl)c(OC)c3)n2-c2ccc(F)cc2)c(Cl)c1 [Example 6c, 3-({[3-chloro-4-({[5-{1-[4-chloro-3-(methyloxy)phenyl]-1-methylethyl}-1-(4-fluorophenyl)-1H-imidazol-2-yl]thio}methyl)-5-fluorophenyl]sulfonyl}amino)-N,N,N-triethylpropan-1-aminium] | < 100 | < 100 |
| CCN(CCC[N+](C)(C)C)S(=O)(=O)c1cc(F)c(CSc2ncc(C(C)(C)c3ccc(F)c(OC)c3)n2-c2ccc(F)cc2)c(Cl)c1 [Compound 14j, 3-[{[3-chloro-5-fluoro-4-({[5-{1-[4-fluoro-3-(methyloxy)phenyl]-1-methylethyl}-1-(4-fluorophenyl)-1H-imidazol-2-yl]thio}methyl)phenyl]sulfonyl} (ethyl)amino]-N,N,N-trimethylpropan-1-aminium] | < 100 | < 100 |
| COc1cc(C(C)(C)c2cnc(SCc3c(F)cc(S(=O)(=O)N(C)[C@H](CCCC[N+](C)(C)C)C(=O)O)cc3F)n2-c2ccc(F)cc2)ccc1Cl [Compound 17k, (R)-5-carboxy-5-(4-((5-(2-(4-chloro-3-methoxyphenyl)propan-2-yl)-1-(4-fluoro-phenyl)-1H-imidazol-2-ylthio)methyl)-3,5-difluoro-N-methylphenylsulfonamido)-N,N,N-trimethylpentan-1-aminium 2,2,2-trifluoroacetate] | < 100 | < 100 |
| COc1cc(C(C)(C)c2cnc(SCc3c(F)cc(S(=O)(=O)N(C)[C@@H](CCC[N+](C)(C)C)C(=O)[O-])cc3F)n2-c2ccc(F)cc2)ccc1Cl [Compound 17] | < 100 | < 100 |
| COc1cc(C(C)(C)c2cnc(SCc3c(F)cc(C(=O)N[C@H]4CC[N+](C)(C)C4)cc3Cl)n2-c2ccc(F)cc2)ccc1Cl [Example 2f, (3S)-3-({[3-chloro-4-({[5-{1-[4-chloro-3-(methyloxy)phenyl]-1-methylethyl}-1-(4-fluorophenyl)-1H-imidazol-2-yl]thio}methyl)-5-fluorophenyl]carbonyl}amino)-1,1-dimethylpyrrolidinium] | < 100 | < 100 |
| COc1cc(-n2c(C(C)(C)c3ccc(S(N)(=O)=O)c(Cl)c3)cnc2SCc2c(F)cc(CCC[N+](C)(C)C)cc2F)ccc1F [Compound 19f, 3-(4-((5-(2-(3-chloro-4-sulfamoylphenyl)propan-2-yl)-1-(4-fluoro-3-methoxyphenyl)-1H-imidazol-2-ylthio)methyl)-3,5-difluorophenyl)-N,N,N-trimethylpropan-1-aminium 2,2,2-trifluoroacetate] | < 100 | < 100 |
| COc1cc(C(C)(C)c2cnc(SCc3c(F)cc(OCC[N+](C)(C)C)cc3F)n2-c2ccc(F)cc2)ccc1Cl [Compound 20, 2-(4-((5-(2-(4-Chloro-3-methoxyphenyl)propan-2-yl)-1-(4-fluorophenyl)-1H-imidazol-2-ylthio)methyl)-3,5-difluorophenoxy)-N,N,N-trimethylethanaminium 2,2,2-trifluoroacetate] | < 100 | < 100 |
| COc1cc(C(C)(C)c2cnc(CCc3c(F)cc(S(=O)(=O)N(C)[C@@H](CCC[N+](C)(C)C)C(=O)O)cc3F)n2-c2ccc(F)cc2)ccc1Cl [Compound 14i, (S)-4-carboxy-4-(4-(2-(5-(2-(4-chloro-3-methoxyphenyl)propan-2-yl)-1-(4-fluorophenyl)-1H-imidazol-2-yl)ethyl)-3,5-difluoro-N-methylphenylsulfonamido)-N,N,N-trimethylbutan-1-aminium chloride] | < 100 | < 100 |
| COc1cc(C(C)(C)c2cnc(SCc3c(F)cc(S(=O)(=O)N(CCC[N+](C)(C)C)C4(C(=O)O)CC4)cc3Cl)n2-c2ccc(F)cc2)ccc1Cl [Compound 14z, 3-[(1-carboxycyclopropyl){[3-chloro-4-({[5-{1-[4-chloro-3-(methyloxy)phenyl]-1-methylethyl}-1-(4-fluorophenyl)-1H-imidazol-2-yl]thio}methyl)-5-fluorophenyl]sulfonyl}amino]-N,N,N-trimethylpropan-1-aminium] | < 100 | < 100 |
| COc1cc(C(C)(C)c2cnc(SCc3c(F)cc(S(=O)(=O)NCCC[N+](C)(C)C)cc3Cl)n2-c2ccc(F)cc2)ccc1F [Example 6a, 3-({[3-chloro-5-fluoro-4-({[5-{1-[4-fluoro-3-(methyloxy)phenyl]-1-methylethyl}-1-(4-fluorophenyl)-1H-imidazol-2-yl]thio}methyl)phenyl]sulfonyl}amino)-N,N,N-trimethylpropan-1-aminium] | < 100 | < 100 |
| CC[N+](CC)(CC)CCOc1cc(F)c(CSc2ncc(C(C)(C)c3ccc(Cl)c(OC)c3)n2-c2ccc(F)cc2)c(F)c1 [Compound 20a, 2-(4-((5(2-(4-chloro-3-methoxyphenyl)propan-2-yl)-(4-fluorophenyl)-1H-imidazol-2-ylthio)methyl)-3,5-difluorophenoxy)-N,N,N-triethylethanaminium chloride] | < 100 | < 100 |
| COc1cc(C(C)(C)c2cnc(SCc3c(F)cc(S(=O)(=O)NCCC[N+](C)(C)C)cc3F)n2-c2ccc(F)cc2)ccc1F [Example 6f, 3-({[3,5-difluoro-4-({[5-{1-[4-fluoro-3-(methyloxy)phenyl]-1-methylethyl}-1-(4-fluorophenyl)-1H-imidazol-2-yl]thio}methyl)phenyl]sulfonyl}amino)-N,N,N-trimethylpropan-1-aminium] | < 100 | < 100 |
| COc1cc(C(C)(C)c2cnc(SCc3c(F)cc(S(=O)(=O)NC4CC[N+](C)(C)CC4)cc3F)n2-c2ccc(F)cc2)ccc1Cl [Compound 11b, 4-({[4-({[5-{1-[4-chloro-3-(methyloxy)phenyl]-1-methylethyl}-1-(4-fluorophenyl)-1H-imidazol-2-yl]thio}methyl)-3,5-difluorophenyl]sulfonyl}amino)-1,1-dimethylpiperidinium] | < 100 | < 100 |
| COc1cc(C(C)(C)c2cnc(SCc3c(F)cc(S(=O)(=O)N(CCC[N+]45CCN(CC4)CC5)[C@H](C)C(=O)O)cc3F)n2-c2ccc(F)cc2)ccc1Cl [Compound 22, (R)-1-(3-(N-(1-carboxyethyl)-4-((5-(2-(4-chloro-3-methoxyphenyl)propan-2-yl)-1-(4-fluorophenyl)-1H-Imidazol-2-ylthio)methyl)-3,5-difluorophenylsulfonamido)propyl)-4-aza-1-azoniabicyclo[2.2.2]octane chloride] | < 100 | < 100 |
| COc1cc(C(C)(C)c2cnc(SCc3c(F)cc(C(=O)NCC[N+]45CCN(CC4)CC5)cc3Cl)n2-c2ccc(F)cc2)ccc1F [Example 2a, 1-[2-({[3-chloro-5-fluoro-4-({[5-{1-[4-fluoro-3-(methyloxy)phenyl]-1-methylethyl}-1-(4-fluorophenyl)-1H-imidazol-2-yl]thio}methyl)phenyl]carbonyl}amino)ethyl]-4-aza-1-azoniabicyclo[2.2.2]octane] | < 100 | < 100 |
| COc1cc(C(C)(C)c2cnc(SCc3c(F)cc(S(=O)(=O)NCC4CC[N+](C)(C)CC4)cc3Cl)n2-c2ccc(F)cc2)ccc1F [Compound 11s, 4-[({[3-chloro-5-fluoro-4-({[5-{1-[4-fluoro-3-(methyloxy)phenyl]-1-methylethyl}-1-(4-fluorophenyl)-1H-imidazol-2-yl]thio}methyl)phenyl]sulfonyl}amino)methyl]-1,1-dimethylpiperidinium] | < 100 | < 100 |
| COc1cc(C(C)(C)c2cnc(SCc3c(F)cc(S(=O)(=O)N(C)[C@@H](CCC[N+](C)(C)C)C(=O)O)cc3F)n2-c2ccc(F)cc2)cc(F)c1F [Compound 14f, (S)-4-carboxy-4-(4-((5-(2-(3,4-difluoro-5-methoxyphenyl)propan-2-yl)-1-(4-fluorophenyl)-1H-imidazol-2-ylthio)methyl)-3,5-difluoro-N-methylphenylsulfonamido)-N,N-trimethylbutan-1-aminium chloride] | < 100 | < 100 |
| COc1cc(C(C)(C)c2cnc(SCc3c(F)cc(S(=O)(=O)N(C)CCC[N+](C)(C)C)cc3Cl)n2-c2ccc(F)cc2)ccc1F [Compound 12d, 3-(3-chloro-5-fluoro-4-((5-(2-(4-fluoro-3-methoxyphenyl)propan-2-yl)-1-(4-fluorophenyl)-1H-imidazol-2-ylthio)methyl)-N-methylphenylsulfonamido)-N,N,N-trimethylpropan-1-aminium 2,2,2-trifluoroacetate] | < 100 | < 100 |
| COc1cc(C(C)(C)c2cnc(SCc3c(F)cc(S(=O)(=O)N(C)[C@@H](CCCC[N+](C)(C)C)C(=O)O)cc3Cl)n2-c2ccc(F)cc2)ccc1Cl [Compound 17f, (S)-5-carboxy-5-(3-chloro-4-((5-(2-(4-chloro-3-methoxyphenyl)propan-2-yl)-1-(4-fluorophenyl)-1H-imidazol-2-ylthio)methyl)-5-fluoro-N-methylphenylsulfonamido)-N,N,N-trimethylpentan-1-aminium 2,2,2-trifluoroacetate] | < 100 | < 100 |

Source: patent US8846739B2, “TGR5 agonists” (Exelixis Patent Company LLC, priority 2009, dated 2014)
